Laboratory results reported in patent US5962472A, “Use of 4-phenyl-3,6-dihydro-2H-pyridyl derivatives” (Hoffmann-La Roche Inc., priority 1996, dated 1999).
Structures can show the parent of a compound that is named as a salt. Where two headings read alike, the source gives them in different places.

Assays:
[1] = molecular target: NMDA receptor (3H-MK801 binding, high and low affinity binding sites); experiment: 3H-MK801 (Dizocilpine) binding in vitro, rat whole brain membranes; conditions: 5 nM 3H-MK-801, 2 hours, room temperature
Experimental: 3H-MK801 (Dizocilpine) binding in vitro
The whole brain from 150-200 g male rats, without cerebellum and without medulla oblongata was dissected on ice. The tissue was then homogenized with an Ultra-Turrax maximum speed during 30 seconds at 4° C. in 50 volumes of cold Tris HCl 50 mM, EDTA disodium 10 mM, pH=7.4 buffer (wet weight/v). The homogenate was centrifuged at 48'000 x g (20'000 rpm, SS34, Sorvall RC5C) for 10 minutes. The pellet was rehomogenized with the same volume of buffer and the homogenate incubated at 37° C. for 10 minutes. After centrifugation as above, the pellet was rehomogenized with the same volume of buffer and frozen at -80° C. in 35 ml fractions for at least 16 hours and not more than 2 weeks.
For the binding experiment, the homogenate was centrifuged as above and the pellet was washed 3 times by homogenization in 25 volumes of cold Tris HCl 5mM, pH=7.4 buffer (Ultra-Turrax, maximum speed, 30 seconds) and centrifugation as above. The final pellet was rehomogenized in 25 volumes of buffer (original wet weight) and used as such in the assay. The final concentration of membrane in the assay was 20 mg/ml (wet weight).
The incubation was performed in the presence of 1 nM glutamate, glycine and spermidine. MK-801, (+)-[3-3H(N)], NEN (NET-972) 20Ci/mmol, was used at 5 nM final concentration. Non specific binding was determined in presence of 10ONM 1-[1-(2-Thienyl)cyclohexyl]piperidine (TCP). After 2 hours of incubation at room temperature, the suspension was filtered (Whatmann GF/B, soaked in 0.1% polyethylenimine for 2 hours) and washed 5 times with 3 ml of cold Tris HCl 5mM, pH=7.4 buffer. The air-dried filters were counted with 10 ml of Ultima-gold (Packard) in a Tri-Carb 2500 TR scintillation counter after agitation.
The radioactive decays per minute (DPM) were transformed in % of specific binding and these values were treated by a non linear regression calculation program (BINDING, H. Affolter, Switzerland) which provided the IC50 values for the low and high affinity binding sites (=concentrations producing half maximal inhibition at the respective sites). Each experiment was repeated at least three times and the final IC50 values were calculated as the mean +/-standard deviation of the individual experiments.
Reference: R. W. Ransom and N. L. Stec. Journal of Neurochemistry 51, 830-836, 1988.

NMDAR1C--NMDAR2A = molecular target: T1, NMDAR1C--NMDAR2A (Rattus norvegicus, UniProt P35439+Q00959); experiment: Electrophysiology on recombinant NMDA receptors NMDAR1C-NMDAR2A expressed in Xenopus oocytes; format: cell-based; conditions: -80 mV, 70 μM Asp plus 2.5 μM Gly, > = highest tested concentration (solubility limit), read-out: Electrophysiology IC50 NMDAR 1C u. 2A
T1 construct: expressed in transfected cells; host or cells: Xenopus laevis oocytes, mRNA injected 1:1
T1 sequence (Q00959 23-1464, other chains not shown): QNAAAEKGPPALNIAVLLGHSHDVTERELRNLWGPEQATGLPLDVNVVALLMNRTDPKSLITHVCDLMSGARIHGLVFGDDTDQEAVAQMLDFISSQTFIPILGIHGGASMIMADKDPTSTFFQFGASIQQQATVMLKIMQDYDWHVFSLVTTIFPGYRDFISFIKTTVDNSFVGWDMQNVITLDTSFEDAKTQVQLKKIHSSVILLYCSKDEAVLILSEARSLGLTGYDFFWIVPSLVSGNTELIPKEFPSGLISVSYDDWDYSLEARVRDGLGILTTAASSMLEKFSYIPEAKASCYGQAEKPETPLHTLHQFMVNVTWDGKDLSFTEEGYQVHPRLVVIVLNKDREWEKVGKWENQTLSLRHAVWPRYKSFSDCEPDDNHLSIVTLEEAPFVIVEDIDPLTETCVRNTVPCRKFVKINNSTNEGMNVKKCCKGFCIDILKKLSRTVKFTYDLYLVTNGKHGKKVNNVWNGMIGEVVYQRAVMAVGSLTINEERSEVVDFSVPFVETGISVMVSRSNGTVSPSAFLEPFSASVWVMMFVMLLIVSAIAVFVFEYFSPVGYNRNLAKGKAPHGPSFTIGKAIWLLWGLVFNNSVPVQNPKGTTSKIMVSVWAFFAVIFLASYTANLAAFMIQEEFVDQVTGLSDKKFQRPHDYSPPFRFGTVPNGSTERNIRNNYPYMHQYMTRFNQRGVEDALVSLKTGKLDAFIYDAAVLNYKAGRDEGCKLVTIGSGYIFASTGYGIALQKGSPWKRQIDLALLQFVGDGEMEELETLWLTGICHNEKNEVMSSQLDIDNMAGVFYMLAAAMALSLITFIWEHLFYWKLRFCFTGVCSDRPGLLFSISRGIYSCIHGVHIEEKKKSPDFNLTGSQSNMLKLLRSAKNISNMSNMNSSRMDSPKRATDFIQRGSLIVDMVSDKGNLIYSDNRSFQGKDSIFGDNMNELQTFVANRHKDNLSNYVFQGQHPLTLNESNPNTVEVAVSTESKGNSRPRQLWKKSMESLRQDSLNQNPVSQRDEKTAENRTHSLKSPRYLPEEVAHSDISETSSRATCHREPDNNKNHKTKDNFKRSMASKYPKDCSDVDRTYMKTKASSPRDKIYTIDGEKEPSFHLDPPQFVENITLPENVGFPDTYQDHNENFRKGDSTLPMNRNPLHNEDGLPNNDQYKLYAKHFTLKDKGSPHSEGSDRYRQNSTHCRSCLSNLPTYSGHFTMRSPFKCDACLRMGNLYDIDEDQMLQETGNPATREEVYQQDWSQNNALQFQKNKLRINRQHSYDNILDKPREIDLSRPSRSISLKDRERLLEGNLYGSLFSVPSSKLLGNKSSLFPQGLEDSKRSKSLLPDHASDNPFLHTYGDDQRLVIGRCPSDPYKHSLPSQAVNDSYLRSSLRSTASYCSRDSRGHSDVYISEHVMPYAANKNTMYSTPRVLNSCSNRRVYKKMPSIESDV
Excerpt: (§1) Electrophysiology on recombinant NMDA receptors
(§2) cDNA clones coding for the subunits NMDAR1C and NMDAR2A of the NMDA receptor (see Hollmann and Heinemann, 1994, Annu. Rev. Neurosci. 17:31 for nomenclature of NMDA receptor subunits) were isolated from a rat brain λgt11 cDNA library as published elsewhere (Sigel et al., 1994, J. Biol. Chem. 269:8204). The clone for the subunit NMDAR2B of the rat brain NMDA receptor was obtained from S. Nakanishi (Kyoto, Japan). The cDNAs were transcribed, capped and poly(A^+)-tailed as described previously (Malherbe et al., 1990, Mol. Brain Res. 8: 199). Oocytes of South African frogs (Xenopus laevis) were used for expressing either a combination of the NMDAR1C and NMDAR2A subunits or the NMDAR1C and NMDAR2B subunits. Approximately 3 fmol of a 1:1 mixture of the respective mRNA species were injected into every oocyte. Four to five days later the ion current through the NMDA receptor channels was measured in voltage clamp experiments (see Methfessel et al., 1986, Pfliigers Arch. 407:577 for the methods of oocyte expression and voltage-clamping). The membrane potential was clamped to -80 mV and the receptors were activated by applying a modified Ringer's solution containing the NMDA-receptor agonists L-asparatate (Asp) and glycine (Gly). Different agonist concentrations were chosen for either subunit combination to account for the different agonist sensitivities of the two types of receptors (70 μM Asp plus 2.5 μM Gly for NMDARlC--NMDAR2A and 15 μM Asp plus 0.2 μM Gly for NMDAR1C--NMDAR2B). The agonists were applied for 15 s intervals once every 2.5 min by rapid superfusion of the oocyte with agonist containing solution and the amplitude of the agonist-evoked current was measured immediately before the end of each application. After a series of initial control applications, increasing concentrations of the antagonist to be tested were added to both, the basal Ringer's and the agonist containing solution. […] Figures for the IC50 in all other cases are arithmetic mean values of individual IC50 s determined by the logistic curve fits.

NMDAR1C--NMDAR2B = molecular target: T2, NMDAR1C--NMDAR2B (Rattus norvegicus, UniProt P35439+Q00960); experiment: Electrophysiology on recombinant NMDA receptors NMDAR1C-NMDAR2B expressed in Xenopus oocytes; format: cell-based; conditions: -80 mV, 15 μM Asp plus 0.2 μM Gly, read-out: Electrophysiology IC50 NMDAR 1C u. 2B
T2 construct: expressed in transfected cells; host or cells: Xenopus laevis oocytes, mRNA injected 1:1
T2 sequence (Q00960 27-1482, other chains not shown): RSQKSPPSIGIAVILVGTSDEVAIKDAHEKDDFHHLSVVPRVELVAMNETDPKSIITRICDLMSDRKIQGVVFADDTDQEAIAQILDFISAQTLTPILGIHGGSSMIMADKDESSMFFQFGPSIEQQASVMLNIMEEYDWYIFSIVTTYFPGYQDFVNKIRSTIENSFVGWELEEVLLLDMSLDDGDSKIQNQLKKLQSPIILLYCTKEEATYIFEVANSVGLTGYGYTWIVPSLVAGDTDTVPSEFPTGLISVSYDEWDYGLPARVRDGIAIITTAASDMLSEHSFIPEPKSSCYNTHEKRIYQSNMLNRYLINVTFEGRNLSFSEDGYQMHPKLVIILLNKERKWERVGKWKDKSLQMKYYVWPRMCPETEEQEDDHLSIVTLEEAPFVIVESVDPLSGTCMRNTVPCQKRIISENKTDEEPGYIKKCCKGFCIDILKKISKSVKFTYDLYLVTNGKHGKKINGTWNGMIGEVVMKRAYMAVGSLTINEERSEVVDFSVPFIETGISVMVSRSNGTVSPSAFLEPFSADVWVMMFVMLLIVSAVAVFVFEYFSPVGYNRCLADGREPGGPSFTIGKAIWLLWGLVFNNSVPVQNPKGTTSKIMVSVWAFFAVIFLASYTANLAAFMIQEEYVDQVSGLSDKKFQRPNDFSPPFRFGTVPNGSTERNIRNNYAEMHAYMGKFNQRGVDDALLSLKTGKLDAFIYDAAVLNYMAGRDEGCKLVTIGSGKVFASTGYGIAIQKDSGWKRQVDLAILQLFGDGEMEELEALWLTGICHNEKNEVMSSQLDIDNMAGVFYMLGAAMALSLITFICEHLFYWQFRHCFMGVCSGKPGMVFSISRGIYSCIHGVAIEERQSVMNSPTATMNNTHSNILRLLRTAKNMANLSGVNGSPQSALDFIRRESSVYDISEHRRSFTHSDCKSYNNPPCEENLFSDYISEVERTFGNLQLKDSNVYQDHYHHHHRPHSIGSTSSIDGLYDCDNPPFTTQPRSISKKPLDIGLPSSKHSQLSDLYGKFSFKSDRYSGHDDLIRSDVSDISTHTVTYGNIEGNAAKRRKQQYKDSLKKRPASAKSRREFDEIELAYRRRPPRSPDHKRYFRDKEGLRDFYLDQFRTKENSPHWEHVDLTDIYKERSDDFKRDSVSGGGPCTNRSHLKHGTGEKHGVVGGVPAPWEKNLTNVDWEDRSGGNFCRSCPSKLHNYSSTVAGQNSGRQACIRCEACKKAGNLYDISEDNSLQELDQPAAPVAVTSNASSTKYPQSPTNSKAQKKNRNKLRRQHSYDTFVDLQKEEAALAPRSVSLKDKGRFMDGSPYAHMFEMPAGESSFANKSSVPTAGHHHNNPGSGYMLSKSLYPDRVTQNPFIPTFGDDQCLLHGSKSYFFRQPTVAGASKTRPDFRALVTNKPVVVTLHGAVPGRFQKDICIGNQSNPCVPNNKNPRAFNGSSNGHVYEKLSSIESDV
Excerpt: as §1, §2

[2] = high affinity binding site, read-out: 3H-MK801 IC50 high
[3] = low affinity binding site, read-out: 3H-MK801 IC50 low

Row | SMILES | IC50 [1, 2] [µM] | IC50 [1, 3] [µM] | IC50 (NMDAR1C--NMDAR2A) [µM] | IC50 (NMDAR1C--NMDAR2B) [µM]
1 | NC(=O)Nc1ccc(OCC(O)CN2CC=C(c3ccc(F)cc3)CC2)cc1 (stereo not drawn) [A, [4-[3-[4-(4-Fluoro-phenyl)-3,6-dihydro-2H-pyridin-1-yl]-2-hydroxy-propoxy]-phenyl]-urea] | 0.02 | 55 | – | –
2 | CS(=O)(=O)Nc1ccc(OCCCN2CC=C(c3ccc(F)cc3)CC2)cc1 [B, N-[4-[3-[4-(4-Fluoro-phenyl)-3,6-dihydro-2H-pyridin-1-yl]-propoxy]-phenyl]-methanesulfonamide hydrochloride (1:1)] | 0.02 | 75 | – | –
3 | CS(=O)(=O)Nc1ccc(OCC(O)CN2CC=C(c3ccc(F)cc3)CC2)cc1 (stereo not drawn) [C, N-[4-[3-[4-(4-Fluoro-phenyl)-3,6-dihydro-2H-pyridin-1-yl]-2-hydroxy-propoxy]-phenyl]-methanesulfonamide] | 0.02 | 69 | – | –
4 | CCOC(=O)Nc1ccc(OCC(O)CN2CC=C(c3ccc(F)cc3)CC2)cc1 (stereo not drawn) [D, [4-[3-[4-(4-Fluoro-phenyl)-3,6-dihydro-2H-pyridin-1-yl]-2-hydroxy-propoxy]-phenyl]-carbamic acid ethyl ester] | 0.136 | 320 | > 20 | 0.63
5 | CC(=O)Nc1ccc(OCCCN2CC=C(c3ccc(Cl)cc3)CC2)cc1 [E, N-[4-[3-[4-(4-chloro-phenyl)-3,6-dihydro-2H-pyridin-1-yl]-propoxy]-phenyl]-acetamide] | 0.2 | 88 | – | –
6 | CC(=O)Nc1ccc(OCCCN2CC=C(c3ccc(F)cc3)CC2)cc1 [F] | 0.2 | 85 | – | –
7 | CS(=O)(=O)Nc1ccc(OCCN2CC=C(c3ccc(F)cc3)CC2)cc1 [G, N-[4-[2-[4-(4-Fluoro-phenyl)-3,6-dihydro-2H-pyridin-1-yl]-ethoxy]-phenyl]-methanesulfonamide] | 0.236 | 24 | > 30 | 0.8
8 | NC(=O)c1ccc(OCC(O)CN2CC=C(c3ccc(F)cc3)CC2)cc1 (stereo not drawn) [H] | 0.33 | 40 | > 30 | 0.71
9 | CC(=O)Nc1ccc(OCC(O)CN2CC=C(c3ccccc3)CC2)cc1 (stereo not drawn) [I] | 0.41 | 110 | – | –
10 | Nc1ccc(OCCCN2CC=C(c3ccc(F)cc3)CC2)cc1 [J] | 0.78 | 44 | – | –
11 | COc1ccc(C2=CCN(CCCOc3ccc(NC(C)=O)cc3)CC2)cc1 [K] | 0.91 | 76 | – | –
12 | CCC(=O)Nc1ccc(OCCCN2CC=C(c3ccc(F)cc3)CC2)cc1 [L] | 1 | 110 | – | –
13 | OC(COc1ccccc1)CN1CC=C(c2ccccc2)CC1 (stereo not drawn) [M] | 1.75 | 102 | – | –
14 | CC(=O)c1ccc(OCCCN2CC=C(c3ccccc3)CC2)cc1 [O] | 7.5 | 298 | – | –
15 | OC(COc1ccc2c(c1)CCC2)CN1CC=C(c2ccc(F)cc2)CC1 (stereo not drawn) [compound N] | 1.96 | 258 | – | –
